From PubChem BioAssay (NCI)
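1) Cells in 96-well plates. 2) Compound, 48 h, 5 concentrations. 3) Linear interpolation between surrounding doses. 4) Unreached endpoint = highest concentration. At the GI50, growth is halved. Definition used: TGI = concentration required for complete inhibition of growth.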

Tests used:
Assay in all cases: growth of human tumour cells (NCI), 48 h
UACC-257 melanoma = test system: UACC-257 melanoma
CCRF-CEM leukemia = test system: CCRF-CEM leukemia
K-562 leukemia = test system: K-562 leukemia
IGROV1 ovarian = test system: IGROV1 ovarian
HOP-92 NSCLC = test system: HOP-92 NSCLC
SNB-75 CNS = test system: SNB-75 CNS
LOX IMVI melanoma = test system: LOX IMVI melanoma
MALME-3M melanoma = test system: MALME-3M melanoma
OVCAR-4 ovarian = test system: OVCAR-4 ovarian
OVCAR-3 ovarian = test system: OVCAR-3 ovarian
HCT-15 colon = test system: HCT-15 colon
M14 melanoma = test system: M14 melanoma
CAKI-1 renal = test system: CAKI-1 renal
OVCAR-5 ovarian = test system: OVCAR-5 ovarian
HL-60(TB) leukemia = test system: HL-60(TB) leukemia
SW-620 colon = test system: SW-620 colon
MCF7 breast = test system: MCF7 breast
RXF 393 renal = test system: RXF 393 renal

Ic1ncnc2c1ncn2C1CCCO1 (stereo unspecified)
TGI (UACC-257 melanoma): > 100 µM
TGI (CCRF-CEM leukemia): > 100 µM
TGI (K-562 leukemia): > 100 µM
TGI (IGROV1 ovarian): > 100 µM
TGI (HOP-92 NSCLC): > 100 µM
TGI (SNB-75 CNS): > 100 µM
TGI (LOX IMVI melanoma): > 100 µM
TGI (MALME-3M melanoma): > 100 µM
TGI (OVCAR-4 ovarian): > 100 µM
TGI (OVCAR-3 ovarian): > 100 µM
TGI (HCT-15 colon): > 100 µM
TGI (M14 melanoma): > 100 µM
TGI (CAKI-1 renal): > 100 µM
TGI (OVCAR-5 ovarian): > 100 µM
TGI (HL-60(TB) leukemia): > 100 µM
TGI (SW-620 colon): > 100 µM

COC(=O)c1cc2c(o1)Sc1ccccc1NC2=O
TGI (UACC-257 melanoma): > 100 µM
TGI (CCRF-CEM leukemia): > 100 µM
TGI (MCF7 breast): > 100 µM
TGI (K-562 leukemia): > 100 µM
TGI (IGROV1 ovarian): > 100 µM
TGI (HOP-92 NSCLC): > 100 µM
TGI (SNB-75 CNS): 66.6 µM
TGI (LOX IMVI melanoma): > 100 µM
TGI (OVCAR-4 ovarian): > 100 µM
TGI (OVCAR-3 ovarian): > 100 µM
TGI (HCT-15 colon): > 100 µM
TGI (M14 melanoma): > 100 µM
TGI (CAKI-1 renal): > 100 µM
TGI (OVCAR-5 ovarian): > 100 µM
TGI (HL-60(TB) leukemia): > 100 µM
TGI (SW-620 colon): > 100 µM

CC(C)(C)[Si](C)(C)O[C@@H](C(=O)OC1C=CCCC1)[C@@H](NC(=O)c1ccccc1)c1ccccc1 (stereo partly specified)
TGI (UACC-257 melanoma): > 100 µM
TGI (CCRF-CEM leukemia): 32.5 µM
TGI (MCF7 breast): 59.9 µM
TGI (K-562 leukemia): 37 µM
TGI (IGROV1 ovarian): > 100 µM
TGI (HOP-92 NSCLC): 99.5 µM
TGI (SNB-75 CNS): > 100 µM
TGI (LOX IMVI melanoma): 41.2 µM
TGI (MALME-3M melanoma): > 100 µM
TGI (OVCAR-4 ovarian): > 100 µM
TGI (OVCAR-3 ovarian): > 100 µM
TGI (HCT-15 colon): > 100 µM
TGI (CAKI-1 renal): > 100 µM
TGI (RXF 393 renal): 34.3 µM
TGI (OVCAR-5 ovarian): > 100 µM
TGI (SW-620 colon): > 100 µM

O=c1c(C=Nc2ccccc2Cl)c(O)n(-c2ccccc2)c(=O)n1-c1ccccc1
TGI (UACC-257 melanoma): > 100 µM
TGI (CCRF-CEM leukemia): > 100 µM
TGI (MCF7 breast): > 100 µM
TGI (K-562 leukemia): > 100 µM
TGI (IGROV1 ovarian): > 100 µM
TGI (HOP-92 NSCLC): > 100 µM
TGI (LOX IMVI melanoma): > 100 µM
TGI (MALME-3M melanoma): > 100 µM
TGI (OVCAR-4 ovarian): > 100 µM
TGI (OVCAR-3 ovarian): > 100 µM
TGI (HCT-15 colon): > 100 µM
TGI (M14 melanoma): > 100 µM
TGI (CAKI-1 renal): > 100 µM
TGI (RXF 393 renal): > 100 µM
TGI (OVCAR-5 ovarian): > 100 µM
TGI (SW-620 colon): > 100 µM

CCN(CC)C1Oc2cc3c(cc2C(c2ccc(OC)cc2)C1C)OCO3 (stereo unspecified)
TGI (UACC-257 melanoma): 35.1 µM
TGI (CCRF-CEM leukemia): 34 µM
TGI (MCF7 breast): 47.7 µM
TGI (K-562 leukemia): 45.9 µM
TGI (IGROV1 ovarian): 86.9 µM
TGI (HOP-92 NSCLC): 57.9 µM
TGI (SNB-75 CNS): 59.7 µM
TGI (LOX IMVI melanoma): 34.1 µM
TGI (MALME-3M melanoma): 37.3 µM
TGI (OVCAR-3 ovarian): 37.1 µM
TGI (HCT-15 colon): 98.1 µM
TGI (M14 melanoma): 51.4 µM
TGI (CAKI-1 renal): 76.4 µM
TGI (RXF 393 renal): 40.6 µM
TGI (OVCAR-5 ovarian): 58.9 µM
TGI (SW-620 colon): > 100 µM

Cc1ccc(-n2cnc3c(N)nc(N)nc32)cc1
TGI (UACC-257 melanoma): > 100 µM
TGI (CCRF-CEM leukemia): > 100 µM
TGI (MCF7 breast): > 100 µM
TGI (IGROV1 ovarian): > 100 µM
TGI (HOP-92 NSCLC): > 100 µM
TGI (SNB-75 CNS): > 100 µM
TGI (LOX IMVI melanoma): > 100 µM
TGI (MALME-3M melanoma): > 100 µM
TGI (OVCAR-4 ovarian): > 100 µM
TGI (OVCAR-3 ovarian): > 100 µM
TGI (HCT-15 colon): > 100 µM
TGI (M14 melanoma): > 100 µM
TGI (CAKI-1 renal): > 100 µM
TGI (RXF 393 renal): > 100 µM
TGI (OVCAR-5 ovarian): > 100 µM
TGI (SW-620 colon): > 100 µM

CC1(C)CN=C(c2ccc3c(c2)Cc2cc(C4=NCC(C)(C)N4)ccc2-3)N1
TGI (UACC-257 melanoma): > 100 µM
TGI (CCRF-CEM leukemia): > 100 µM
TGI (MCF7 breast): 86.5 µM
TGI (K-562 leukemia): 90.4 µM
TGI (IGROV1 ovarian): > 100 µM
TGI (HOP-92 NSCLC): > 100 µM
TGI (SNB-75 CNS): > 100 µM
TGI (LOX IMVI melanoma): > 100 µM
TGI (MALME-3M melanoma): 61.2 µM
TGI (OVCAR-4 ovarian): > 100 µM
TGI (OVCAR-3 ovarian): > 100 µM
TGI (HCT-15 colon): > 100 µM
TGI (M14 melanoma): > 100 µM
TGI (CAKI-1 renal): > 100 µM
TGI (RXF 393 renal): > 100 µM
TGI (OVCAR-5 ovarian): > 100 µM
TGI (SW-620 colon): > 100 µM

Nc1nc(N)c2cc(Sc3ccc4nc(N)nc(N)c4c3)ccc2n1
TGI (UACC-257 melanoma): > 100 µM
TGI (CCRF-CEM leukemia): 0.0104 µM
TGI (K-562 leukemia): > 100 µM
TGI (IGROV1 ovarian): > 100 µM
TGI (HOP-92 NSCLC): > 100 µM
TGI (SNB-75 CNS): > 100 µM
TGI (LOX IMVI melanoma): > 100 µM
TGI (MALME-3M melanoma): > 100 µM
TGI (OVCAR-4 ovarian): > 100 µM
TGI (OVCAR-3 ovarian): > 31.6 µM
TGI (HCT-15 colon): > 100 µM
TGI (M14 melanoma): > 100 µM
TGI (CAKI-1 renal): > 100 µM
TGI (RXF 393 renal): > 100 µM
TGI (OVCAR-5 ovarian): > 100 µM
TGI (HL-60(TB) leukemia): > 100 µM
TGI (SW-620 colon): > 100 µM

COc1cc(C2SCC(=O)N2c2ccccc2Cl)cc(OC)c1OC (stereo unspecified)
TGI (UACC-257 melanoma): > 100 µM
TGI (CCRF-CEM leukemia): > 100 µM
TGI (MCF7 breast): > 100 µM
TGI (K-562 leukemia): > 100 µM
TGI (IGROV1 ovarian): > 100 µM
TGI (HOP-92 NSCLC): > 100 µM
TGI (LOX IMVI melanoma): > 100 µM
TGI (OVCAR-4 ovarian): > 100 µM
TGI (OVCAR-3 ovarian): > 100 µM
TGI (HCT-15 colon): > 100 µM
TGI (M14 melanoma): > 100 µM
TGI (CAKI-1 renal): > 100 µM
TGI (OVCAR-5 ovarian): > 100 µM
TGI (HL-60(TB) leukemia): > 100 µM
TGI (SW-620 colon): > 100 µM

COc1cc2c[n+](C)c3c4cc5c(cc4ccc3c2cc1OC)OCO5
TGI (UACC-257 melanoma): > 59.8 µM
TGI (CCRF-CEM leukemia): 19.5 µM
TGI (K-562 leukemia): 32.2 µM
TGI (IGROV1 ovarian): 3.9 µM
TGI (HOP-92 NSCLC): 6.39 µM
TGI (SNB-75 CNS): 0.767 µM
TGI (LOX IMVI melanoma): 24.8 µM
TGI (MALME-3M melanoma): 37.5 µM
TGI (OVCAR-4 ovarian): > 52.4 µM
TGI (OVCAR-3 ovarian): 9.39 µM
TGI (HCT-15 colon): > 100 µM
TGI (M14 melanoma): > 88.1 µM
TGI (RXF 393 renal): 49.7 µM
TGI (OVCAR-5 ovarian): 4.84 µM
TGI (HL-60(TB) leukemia): 22.5 µM
TGI (SW-620 colon): 26 µM

COc1ccc2nc3c([N+](=O)[O-])ccc4c3c(c2c1)N=CN4CCCN(C)C
TGI (UACC-257 melanoma): 17.2 µM
TGI (CCRF-CEM leukemia): 3.18 µM
TGI (MCF7 breast): 11.6 µM
TGI (K-562 leukemia): 2.19 µM
TGI (IGROV1 ovarian): 6.16 µM
TGI (HOP-92 NSCLC): 8.94 µM
TGI (SNB-75 CNS): 11.1 µM
TGI (LOX IMVI melanoma): 8.78 µM
TGI (MALME-3M melanoma): 28.2 µM
TGI (OVCAR-3 ovarian): 20.2 µM
TGI (HCT-15 colon): 15.2 µM
TGI (M14 melanoma): 23.6 µM
TGI (CAKI-1 renal): 7.26 µM
TGI (OVCAR-5 ovarian): 25.5 µM
TGI (HL-60(TB) leukemia): 6.27 µM
TGI (SW-620 colon): > 44.3 µM

O=[n+]1c2ccccc2n([O-])c2ccccc21
TGI (UACC-257 melanoma): > 100 µM
TGI (CCRF-CEM leukemia): > 100 µM
TGI (MCF7 breast): > 100 µM
TGI (K-562 leukemia): > 100 µM
TGI (IGROV1 ovarian): > 100 µM
TGI (SNB-75 CNS): > 100 µM
TGI (LOX IMVI melanoma): > 100 µM
TGI (MALME-3M melanoma): > 100 µM
TGI (OVCAR-4 ovarian): > 100 µM
TGI (HCT-15 colon): > 100 µM
TGI (M14 melanoma): > 100 µM
TGI (CAKI-1 renal): > 100 µM
TGI (OVCAR-5 ovarian): > 100 µM
TGI (HL-60(TB) leukemia): 72.4 µM
TGI (SW-620 colon): > 100 µM

COC1CC(C)C(OC)C2=CC(=O)C=C(NC(=O)/C(C)=C/C=C\C(C)C(OC(N)=O)/C(C)=C\C(C)C1OC)C2=O (stereo unspecified)
TGI (UACC-257 melanoma): 1.8 µM
GI50 (CCRF-CEM leukemia): 0.0706 µM
TGI (CCRF-CEM leukemia): 1.05 µM
GI50 (K-562 leukemia): 0.047 µM
TGI (K-562 leukemia): 1.19 µM
TGI (IGROV1 ovarian): 17.8 µM
TGI (HOP-92 NSCLC): 10.9 µM
TGI (SNB-75 CNS): 16.1 µM
TGI (LOX IMVI melanoma): 3.66 µM
TGI (MALME-3M melanoma): 12 µM
TGI (OVCAR-4 ovarian): 2.48 µM
TGI (OVCAR-3 ovarian): 1.48 µM
TGI (HCT-15 colon): 3.31 µM
TGI (M14 melanoma): 12.2 µM
TGI (CAKI-1 renal): 6.6 µM
TGI (RXF 393 renal): 1.68 µM
TGI (OVCAR-5 ovarian): 17.8 µM
TGI (HL-60(TB) leukemia): 1.13 µM
TGI (SW-620 colon): 1.05 µM

O=C(Nc1ccc(Cl)cc1)C(=O)C(C(=O)c1ccccc1-c1ccccc1)C1OC(=O)c2ccccc21 (stereo unspecified)
TGI (UACC-257 melanoma): 61.3 µM
TGI (CCRF-CEM leukemia): 58 µM
TGI (K-562 leukemia): > 100 µM
TGI (IGROV1 ovarian): > 100 µM
TGI (HOP-92 NSCLC): 65.6 µM
TGI (SNB-75 CNS): 93.3 µM
TGI (LOX IMVI melanoma): 36 µM
TGI (OVCAR-4 ovarian): > 100 µM
TGI (HCT-15 colon): 37.3 µM
TGI (M14 melanoma): 42.4 µM
TGI (CAKI-1 renal): 55.7 µM
TGI (RXF 393 renal): 24.4 µM
TGI (OVCAR-5 ovarian): 92.4 µM
TGI (HL-60(TB) leukemia): 53.5 µM
TGI (SW-620 colon): 46.2 µM
